Test results reported in patent EP1137386B1, “USE OF TRICLOSAN AS AN AN[…]” (Jawaharlal Nehru Centre For Advanced Scientific Research, priority 1999, dated 2001).

What was measured:
Plasmodium falciparum = assay: In vitro effect on growth of Plasmodium falciparum (parasitemia and morphology in Giemsa stained smears); type: cell-based; settings: P. falciparum cultures in human erythrocytes
Procedure: Plasmodium falciparum cultures with 5-6% parasitemia are diluted with washed 50% suspension of red blood cells and CRPMI so that the initial parasitemia becomes 1% and hematocrit 2%. 1.5 millilitres of this diluted infected cell suspension is placed in flat bottom vials, which are kept in a desiccator equipped with a stopcock. A candle is lit and the cover of the desiccator is put on with the stopcock open. When the candle goes out, the stopcock is closed. This is a simple but effective way to produce an atmosphere of low O2(1-5%) and high CO2 content (7%). Fresh medium is provided daily by withdrawing the supernatant and supplementing cells with 1.25 millilitres of CRPMI. Fresh erythrocytes are added every third or fourth day when the parasitemia reaches 6-8%, bringing it down to 1%. In cultures, all stages of the asexual cycle are seen at any one time, since the cultures have lost some of the synchronicity characteristic of P. falciparum in man. Delicate rings with two chromatin dots are common. Schizonts or segmenters show 15-18 merozoites, the same numbers seen in material from human infections.
This is done by observing the stained smear of infected red blood cells under the microscope in oil immersion. The following stages of Plasmodium falciparum with their characteristic features can be seen. These stages are as follows: • 1. […]

P. falciparum = assay: Uptake of [35S] methionine as an index of inhibition of parasite growth; type: cell-based; settings: P. falciparum in culture, different concentrations of triclosan (Fig. 5)
Procedure: Uptake of [^35S] methionine, NEN, DuPont, (specific activity 1175 Ci/mmol) is used as an index of parasite growth. The final isotope concentration to be added in each well is 100 µCi/ml culture. Before an hour of total incubation period (24, 48, or 72 h) 20 µl of the isotope in culture medium is added to each well and incubated for an additional 1 hr. After incubation, contents of the well are pipetted into microcentrifuge tubes kept on ice. The samples are spun at 3000 g for 10 sec. The supernatant is discarded and the pellet washed twice in 1.0 ml of 0.9% NaCl. The pellet is lysed with 50 µl distilled water and spotted onto Whatman No. 3 discs (presoaked in 10% TCA with cold methionine and dried). After spotting, these discs are allowed to dry and then they are treated with hot TCA, cold TCA (10% throughout), alcohol ether (2:1, v/v) and finally with ether. […] The discs are air dried after ether treatment, and counted in optiphase 'Hisafe' scintillation fluid (Wallac Scintillation Products, U.K.) in a Wallac β-counter (Model 1409, Finland).
The drug and parasites were aliquoted in required number of rows of wells in 96 well titre plates as described in example 1. […] After ether treatment, the discs were air dried, placed in scintillation fluid phase III from Wallac and counted in Wallac β-counter.

Plasmodium berghei = assay: Protection of mice against malaria after administration in vivo (P. berghei infected mice); design: species or system Swiss mice; settings: for mice survived till day 14 / mice survived till 14th day: subcutaneously in DMSO, day 1 of infection and next 6 days, P. berghei infected male swiss mice
From the text: The present invention involves the use of triclosan for the manufacture of an antimalarial agent to inhibit the growth of the murine malaria parasite Plasmodium berghei as well. The effect of various concentration of triclosan in controlling parasitemia is monitored in Plasmodium berghei infected mice. • 1. Plasmodium berghei infection: P. berghei parasite is maintained in Swiss male mice through serial blood passage. • 2. Triclosan treatment: Swiss mice (5 animals/group) are infected on day zero with about 10^6 infected red blood cells (IRBC). The animals are kept under observation to record parasitemia and mortality. Parasitemia is determined by counting 10^3 red cells in a thin blood smear stained with Giesma and expressed as number of parasitized cells/100 erythrocytes. The animals given only dimethylsulfoxide (DMSO) are used as controls and referred to as untreated animals. Level of parasitemia is >1% on the first day of triclosan treatment. Parasitemia is monitored every 24 hrs, for 7-8 days.
Male swiss mice were infected with P. berghei. The animals were kept under observation and parasitemia was recorded daily. Triclosan (0.8, 1.6, 3.0, 8.0, 14.0 and 28.0 mg/kg body weight of mice respectively) in DMSO was given subcutaneously on day 1 of infection when parasitemia was>1% and subsequently for the next 6 days. Experiments with triclosan were conducted with a group of five animals, each for the dosages mentioned above. DMSO was given to control animals (6) and were referred to as untreated animals. Parasitemia and mortality were recorded till the untreated mice died. Typically all the six mice in the control group died by day 9 of infection while 3, 3 and 4 mice out of 5 treated with 0.8, 1.6 and 3.0 mg triclosan/kg (body weight), survived till day 14. All the mice (5 out of 5) survived till 14th day when treated with 8.0, 14.0 and 28.0 mg triclosan/kg (body weight).

[1] = tested on: cell free system for the synthesis of fatty acids of Plasmodium falciparum; assay: Incorporation of [14C] malonyl-CoA in fatty acids in cell free system, scintillation counting and TLC/autoradiography; type: biochemical
Procedure: For cell free fatty acid synthesis in E.Coli, See Δ P.W. Majerus et al. (1968), Methods in Enzymol, 14, 43-52.
The pellet was washed four to five times with cold phosphate buffer saline and after washing, the pellet was suspended in 3.0 ml of phosphate buffer saline and equal volume of 0.15% saponin was added to isolate free parasites. (See specific embodiments). The late ring stage (trophozoites) of the parasites thus isolated were washed once thoroughly with PBS and the cells suspended in 0.4 ml of 1 mM potassium phosphate buffer pH 7.0 and sonicated for 15 sec. The cell lysate (2.0 mg cell extract protein) thus prepared was mixed with 200 µl of 200 mM of potassium phosphate buffer pH 7.0 containing 70 uM acetyl CoA, 8 mM glucose-6-phosphate, 3 mM each of NADH and NADPH, 0.4 mM EDTA, 4 units of glucose-6-phosphate dehydrogenase, 45 uM [^14C]malonyl-CoA (specific activity 54.2 mCi/mmol, DuPont) and 3 mM dithiothreitol (DTT). To this 200 µg of DTT reduced acyl carrier protein (ACP) from E. coli (Sigma) in 25 µl of 75 mM phosphate buffer was added. The reaction mixture was incubated for 30 min at 37°C. […] A part (25 µl) of the sample in methanol was counted by scintillation counting to determine also the extent of incorporation of [^14C] malonyl-CoA in fatty acids both in the presence and absence of Triclosan.

Oc1cc(Cl)ccc1Oc1ccc(Cl)cc1Cl [triclosan, 2,4,4'-trichloro-2'-hydroxydiphenyl ether]
growth of the human malaria parasite in vitro (Plasmodium falciparum): inhibits the growth of the human malaria parasite in vitro in a very potent manner
inhibition of protein synthesis, uptake of (^35S) methionine (P. falciparum): reduced uptake of (^35S) methionine
mice survived till day 14 (Plasmodium berghei; 0.8 mg/kg body weight): 3 mice out of 5
mice survived till day 14 (Plasmodium berghei; 1.6 mg/kg body weight): 3 mice out of 5
mice survived till day 14 (Plasmodium berghei; 3.0 mg/kg body weight): 4 mice out of 5
mice survived till 14th day (Plasmodium berghei; 8.0 mg/kg body weight): 5 out of 5
mice survived till 14th day (Plasmodium berghei; 14.0 mg/kg body weight): 5 out of 5
mice survived till 14th day (Plasmodium berghei; 28.0 mg/kg body weight): 5 out of 5
mortality (Plasmodium berghei; P. berghei infected Swiss mice, untreated animals die by 8 days after the infection): delayed mortality is observed in treated animals depending on dose
parasitemia (Plasmodium berghei; injection in mice infected with P. berghei): able to curtail the parasitemia
incorporation of [^14C] malonyl CoA in fatty acids ([1]; cell free system, 0.15, 0.225, 0.3, 0.6 and 1.2 µg of triclosan, 30 min at 37°C): inhibits incorporation of [^14C] malonyl CoA in fatty acids
longer chain fatty acids synthesized (elongation reaction) ([1]; cell free system, TLC with autoradiography): progressive decline in the longer chain fatty acids
